In patent publication US9382215B2, “Therapeutic methods and agents for treating myotonic dystrophy” (The Board of Trustees of the University of Illinois, priority 2012, dated 2016):

Experiments:
MBNL1-CUG interaction = molecular target: T1, MBNL1-CUG interaction (Homo sapiens, UniProt Q9NR56); test: Electrophoretic mobility shift assay (EMSA) of inhibition of MBNL1-CUG interaction; assay type: biochemical
T1 construct: An expression vector for MBNL1N (1-272 aminoacids) was obtained from Maurice S. Swanson; hexahis; made in house
T1 sequence (Q9NR56 1-272): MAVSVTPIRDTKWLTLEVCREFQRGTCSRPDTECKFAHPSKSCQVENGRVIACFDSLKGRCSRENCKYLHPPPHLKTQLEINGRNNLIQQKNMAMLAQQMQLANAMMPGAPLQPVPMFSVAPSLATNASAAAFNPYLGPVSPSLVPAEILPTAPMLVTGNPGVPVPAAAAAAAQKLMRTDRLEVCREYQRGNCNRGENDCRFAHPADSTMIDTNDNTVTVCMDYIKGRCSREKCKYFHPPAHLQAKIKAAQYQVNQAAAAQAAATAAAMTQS
Experimental: (§1) RNA was labeled with [γ-^32P]ATP using T4 polynucleotide kinase (New England Biolabs). Labeled RNA (5 μL, 0.5 nM) was heated at 95° C. for 2 min and then placed on ice for 10 min and diluted to 125 μL in RNA storage buffer (66 mM NaCl, 6.7 mM MgCl2, and 27 mM Tris.HCl (pH 7.5). If required for the experiment, tRNA was added to the RNA solution to give a final concentration of approximately 8 μM. The protein (MBNL1N) was serially diluted in binding buffer (175 mM NaCl, 5 mM MgCl2, 20 mM Tris.HCl (pH 7.5), 1.25 mM BME, 12.5% glycerol, 2 mg/mL BSA, and 0.1 mg/mL heparin), and 5 μL of protein solution was added to 5 μL of RNA solution (Warf and Berglund, RNA, 2007, 13, 2238-2251). The reaction mixture was incubated at room temperature for 25 min and loaded onto a 6% polyacrylamide gel (80:1) at 4° C. The gels were run for 1 hour at 360V in 22.5 mM Tris-borate buffer (pH 8). Gels were visualized on a Molecular Dynamics Storm phosphorimager. The apparent Kd values were obtained by fitting fraction RNA bound versus protein concentration using the following equation: fraction bound=1/(1+(Kd/[P]T)). All binding measurements were performed with a greater than 10-fold excess of protein over RNA in each binding reaction used to determine the Kd so that [P] would be approximately equal to [P]total.
The inhibition of the MBNL1N-RNA complex was investigated using the above procedure except that the small molecule was added to the RNA-protein complex after 25 min of incubation. The reaction mixture was incubated for an additional 10-15 minutes at room temperature (˜23° C.). The inhibition assays were performed in the presence of 10% DMSO. To determine IC50 values, the free RNA versus small molecule concentration was fit to the equation: B=ΔB exp((−0.69/IC50)C)+Bf. B is the volume of the free RNA band in the gel, ΔB is the difference between the volumes of the free RNA bands at the lowest and highest concentrations of small molecule (Bi−Bf), C is the concentration of the small molecule, and IC50 is the concentration of small molecule at which B=(½ΔB)+Bf. […]

MBNL1N-(CUG)4 RNA = molecular target: T2, MBNL1N-(CUG)4 RNA (Homo sapiens, UniProt Q9NR56); test: Inhibition of MBNL1N binding to (CUG)4 RNA in the presence of competitor tRNA; assay type: biochemical
T2 construct: An expression vector for MBNL1N (1-272 aminoacids) was obtained from Maurice S. Swanson; hexahis; made in house
T2 sequence (Q9NR56 1-272): T1 sequence (Q9NR56 1-272)
Experimental: as §1, with “[P]total. […]” for “[P]total.”

MBNL1N-(CUG)12 RNA = molecular target: T3, MBNL1N-(CUG)12 RNA (Homo sapiens, UniProt Q9NR56); test: Inhibition of MBNL1N binding to (CUG)12 RNA in the presence of competitor tRNA; assay type: biochemical
T3 construct: An expression vector for MBNL1N (1-272 aminoacids) was obtained from Maurice S. Swanson; hexahis; made in house
T3 sequence (Q9NR56 1-272): T1 sequence (Q9NR56 1-272)
Experimental: as §1, with “[P]total. […]” for “[P]total.”

CTG repeats = test: Binding to CTG repeats
Experimental: (§2) Isothermal titration calorimetry measurements were performed at 25° C. on a MicroCal VP-ITC (MicroCal, Inc., Northampton, Mass.). A standard experiment consisted of titrating 10 μL of a 500 μM ligand from a 250 μL syringe (rotating at 300 rpm) into a sample cell containing 1.42 mL of a 20 μM DNA/RNA solution. The duration of the injection was set to 24 s, and the delay between injections was 300 s. The initial delay prior to the first injection was 60 s. To derive the heat associated with each injection, the area under each isotherm (microcalories per second versus seconds) was determined by integration by the graphing program Origin 5.0 (MicroCal, Inc. Northampton, Mass.). […] In many cases, additional sites are not detected by Job plot analysis and likely represent low-affinity sites. […]
(§3) A cell sample (250 μL) of 0.2 μM a compound of interest (in 20 mM MOPS pH 7.0, 300 mM NaCl) was excited at 310 nm (excitation slit of 4 nm) and emission recorded between 470-530 nm (emission slit of 8 nm) monitoring the maximum at 495 nm. […] The sample was then allowed to equilibrate for 15 min and the fluorescence emission recorded. The decrease in fluorescence with increased DNA/RNA was monitored until the binding sites became saturated and the fluorescence change was no longer evident. […]

CUG repeats = test: Binding to CUG repeats
Experimental: as §2, §3

Water solubility = assay type: physicochemical
3T3 mouse fibroblast = test: Toxicity / cell viability in 3T3 mouse fibroblasts; assay type: cell-based
MBNL1-CUG foci = test: Confocal microscopy of MBNL1-CUG foci in HeLa cells transfected with GFP-MBNL1 and DMPK (CUG)960; assay type: cell-based; conditions: HeLa cells containing (CUG)960, confocal microscopy, preliminary results
Excerpt: In various embodiments, the compounds described herein can form MBNL1-CUG foci inside the nucleus for cells containing expanded CUG repeats.

[1] = Tolerability in mice, intraperitoneal injection; assay type: in vivo; conditions: mouse, in vivo, ip, mice, 5-100 mg/kg tested, read-out: maximum tolerated dose
Experimental: (§4) The compounds are found to be non-toxic among different cell types tested, including DM1 patient cells and 3T3 mouse fibroblasts. In one experiment, three mice each were evaluated at 5, 10, 20 50, and 100 mg/kg of compound 1, given by intraperitoneal injection.

mice = test: Tolerability in mice, intraperitoneal injection; assay type: in vivo; conditions: 100 mg/kg
Experimental: as §4

SMILES: N=C(NCCCCNc1nc(N)nc(N)n1)c1ccc(C(=N)NCCCCNc2nc(N)nc(N)n2)cc1 [Compound 1, N^1,N^4-bis(4-((4,6-diamino-1,3,5-triazin-2-yl)amino)butyl)terephthalimidamide]
- IC50 (MBNL1-CUG interaction; EMSA): 11 µM
- Ki (MBNL1-CUG interaction; EMSA, read-out: inhibition constant (Ki) for MBNL1-CUG interaction): 0.177 µM
- inhibitory ability in EMSA screen compared to other inhibitor compounds (such as compound 5) (MBNL1-CUG interaction; same concentration (100 μM)): significantly improved inhibitory ability
- Ki for inhibition of MBNL1N binding to (CUG)4 RNA (MBNL1N-(CUG)4 RNA): low micromolar
- Ki for inhibition of MBNL1N binding to (CUG)12 RNA (MBNL1N-(CUG)12 RNA): low micromolar
- affinity for CTG repeats (CTG repeats): high nanomolar affinity
- affinity for CUG repeats (CUG repeats): high nanomolar affinity
- water solubility (Water solubility): improved water solubility
- toxicity towards mouse fibroblasts (3T3 mouse fibroblast): non-toxic
- cell viability (3T3 mouse fibroblast; 100 μM, 3-day incubation): 100%
- disruption of MBNL1-CUG foci in the nucleus (MBNL1-CUG foci): significant disruption of foci
- MTD [1]: 50 mg/kg
- mice exhibiting neurotoxicity (mice): two of three
